Test results reported in EP4763868A1, “RECOMBINANT PTH FUSION PROTEIN, CONSTRUCTION METHOD THEREFOR, AND APPLICATION THEREOF” (KANGZHONG (GUANGDONG) INC., priority 2024, dated 2025).

What was measured:
[1] = cited from earlier work
[2] = target: T1, PTHR1 on UMR-106 cells (UniProt P25961 27-591, limits assumed); experiment: cell-based or functional assay
T1 sequence (looked up): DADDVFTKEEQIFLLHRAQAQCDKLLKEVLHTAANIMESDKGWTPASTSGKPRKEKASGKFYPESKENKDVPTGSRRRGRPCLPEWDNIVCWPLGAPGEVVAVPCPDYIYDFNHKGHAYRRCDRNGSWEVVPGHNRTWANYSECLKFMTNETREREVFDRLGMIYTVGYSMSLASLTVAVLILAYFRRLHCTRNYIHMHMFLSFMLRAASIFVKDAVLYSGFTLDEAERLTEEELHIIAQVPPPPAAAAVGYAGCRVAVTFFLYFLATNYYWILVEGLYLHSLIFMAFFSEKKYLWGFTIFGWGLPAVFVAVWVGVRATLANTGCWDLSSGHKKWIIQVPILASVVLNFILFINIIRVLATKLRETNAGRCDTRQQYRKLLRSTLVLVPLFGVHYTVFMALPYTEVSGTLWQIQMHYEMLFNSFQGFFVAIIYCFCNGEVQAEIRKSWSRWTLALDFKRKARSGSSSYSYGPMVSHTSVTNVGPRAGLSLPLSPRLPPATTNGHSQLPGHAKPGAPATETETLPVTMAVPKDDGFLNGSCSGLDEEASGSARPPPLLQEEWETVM

Row | Molecule | EC50, biological activity (pGL4.29 reporter, fluorescence intensity) [2] [pM] | also measured
1 | Transcon PTH(1-34): polyethylene glycol (PEG)-conjugated prodrug of PTH(1-34) by Ascendis Pharma A/S | – | time for which serum calcium is maintained at normal physiological levels ([1]; patients, after administration): ≤ 24 hours
2 | triple-ECD-binding fusion protein T002G-K | 61.4 | –
3 | CC[C@H](C)[C@H](NC(=O)[C@H](CCC(=O)O)NC(=O)[C@H](CO)NC(=O)[C@@H](NC(=O)[C@@H](N)CO)C(C)C)C(=O)N[C@@H](CCC(N)=O)C(=O)N[C@@H](CC(C)C)C(=O)N[C@@H](CCSC)C(=O)N[C@@H](Cc1cnc[nH]1)C(=O)N[C@@H](CC(N)=O)C(=O)N[C@@H](CC(C)C)C(=O)NCC(=O)N[C@@H](CCCCN)C(=O)N[C@@H](Cc1cnc[nH]1)C(=O)N[C@@H](CC(C)C)C(=O)N[C@@H](CC(N)=O)C(=O)N[C@@H](CO)C(=O)N[C@@H](CCSC)C(=O)N[C@@H](CCC(=O)O)C(=O)N[C@@H](CCCN=C(N)N)C(=O)N[C@H](C(=O)N[C@@H](CCC(=O)O)C(=O)N[C@@H](Cc1c[nH]c2ccccc12)C(=O)N[C@@H](CC(C)C)C(=O)N[C@@H](CCCN=C(N)N)C(=O)N[C@@H](CCCCN)C(=O)N[C@@H](CCCCN)C(=O)N[C@@H](CC(C)C)C(=O)N[C@@H](CCC(N)=O)C(=O)N[C@@H](CC(=O)O)C(=O)N[C@H](C(=O)N[C@@H](Cc1cnc[nH]1)C(=O)N[C@@H](CC(N)=O)C(=O)N[C@@H](Cc1ccccc1)C(=O)O)C(C)C)C(C)C [TP(PTH(1-34)), teriparatide] | – | half-life ([1]; human, in vivo): 30 min
4 | human serum albumin nanobody NbHSA (VHH) VHH: QVQLVESGGGLVQTGGSLRLSCAASGSTLVGHSVGFFRQAPGKEREPVVCISSTETVMYYTNSVKGRFTISRDNAKNTVWLQMDRLAPEDTAVYYCAARPQLCSALDYRYNSWGPGTQVTVSS | 0 | –
